Counter-ions that a name gives are not always drawn.
Target: T1, Cdc7/Dbf4 complex (Homo sapiens, UniProt O00311)
T1 construct: Full-length Cdc7 co-expressed with full-length Dbf4; purchased Carna Biosciences (Kobe)
Experiment: Measurement of Cdc7 kinase inhibitory activity (Transcreener ADP HTRF assay)
Type: biochemical
Conditions: read-out: inhibitory rate (%) at 1 μM
Experimental: Full-length Cdc7 co-expressed with full-length Dbf4 was purchased from Carna Biosciences (Kobe). The enzyme activity of Cdc7/Dbf4 complex was detected by homogeneous time-resolved fluorescence method Transcreener ADP assay (Cisbio Inc., MA, U.S.A.). […] Free ADP produced by ATP hydrolysis was detected by Eu^3+-Cryptate-labeled anti-ADP monoclonal antibody competitively with d2-labeled ADP, and the production amount thereof was measured. The obtained time-resolved fluorescence resonance energy transfer signal was measured by EnVision (Perkin Elmer Inc., MA, U.S.A.). The inhibitory rate (%) of the test compound to Cdc7 was calculated by the following formula. Inhibitory rate(%)=(1−(count of test compound-blank)[…](control-blank))×100
The count of the Cdc7/Dbf4 reaction mixture under compound-free conditions was taken as the control, and that under compound-free and Cdc7/Dbf4-free conditions was taken as the blank.

T1 sequence (O00311 whole entry): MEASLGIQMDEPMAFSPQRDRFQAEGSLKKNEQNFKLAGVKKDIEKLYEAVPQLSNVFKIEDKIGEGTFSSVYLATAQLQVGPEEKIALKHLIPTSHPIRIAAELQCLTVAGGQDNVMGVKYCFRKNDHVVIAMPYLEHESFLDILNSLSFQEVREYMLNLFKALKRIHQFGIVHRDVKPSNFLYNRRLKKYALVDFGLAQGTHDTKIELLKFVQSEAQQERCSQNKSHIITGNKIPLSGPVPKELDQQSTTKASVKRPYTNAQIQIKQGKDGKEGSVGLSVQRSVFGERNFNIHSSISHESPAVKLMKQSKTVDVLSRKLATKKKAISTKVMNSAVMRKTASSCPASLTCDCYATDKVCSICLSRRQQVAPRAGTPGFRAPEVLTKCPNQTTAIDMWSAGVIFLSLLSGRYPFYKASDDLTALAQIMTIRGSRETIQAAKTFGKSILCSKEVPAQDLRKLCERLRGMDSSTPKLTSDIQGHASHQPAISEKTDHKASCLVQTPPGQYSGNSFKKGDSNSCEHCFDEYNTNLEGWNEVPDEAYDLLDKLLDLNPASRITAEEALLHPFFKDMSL
T1 sequence (Q9UBU7 whole entry partner): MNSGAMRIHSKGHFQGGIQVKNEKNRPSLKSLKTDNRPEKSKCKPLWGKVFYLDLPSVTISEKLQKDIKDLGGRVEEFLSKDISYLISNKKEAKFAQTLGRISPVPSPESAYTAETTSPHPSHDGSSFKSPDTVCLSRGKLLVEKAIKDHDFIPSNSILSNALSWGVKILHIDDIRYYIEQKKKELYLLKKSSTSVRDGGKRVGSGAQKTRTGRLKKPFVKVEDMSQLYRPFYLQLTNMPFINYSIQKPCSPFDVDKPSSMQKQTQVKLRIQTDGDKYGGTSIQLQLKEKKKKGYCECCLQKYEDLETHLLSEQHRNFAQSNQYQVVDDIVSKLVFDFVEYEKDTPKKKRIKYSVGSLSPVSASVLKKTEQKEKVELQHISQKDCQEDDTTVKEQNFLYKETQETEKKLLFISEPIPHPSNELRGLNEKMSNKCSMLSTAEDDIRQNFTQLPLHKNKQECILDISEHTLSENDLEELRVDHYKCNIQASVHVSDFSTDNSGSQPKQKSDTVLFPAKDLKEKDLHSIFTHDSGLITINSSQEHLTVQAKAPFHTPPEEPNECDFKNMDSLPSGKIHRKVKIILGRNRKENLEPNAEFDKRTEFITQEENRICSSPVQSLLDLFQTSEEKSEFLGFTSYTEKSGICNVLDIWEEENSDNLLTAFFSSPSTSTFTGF

| SMILES | inhibition at 1 µM [%] |
| --- | --- |
| Cc1[nH]ncc1-c1cc2nc([C@@H]3CCC(C)(C)N3)[nH]c(=O)c2s1 [Example 76, 2-[(2S)-5,5-dimethylpyrrolidin-2-yl]-6-(5-methyl-1H-pyrazol-4-yl)thieno[3,2-d]pyrimidin-4 (3H)-one] | 106 |
| Cc1[nH]ncc1-c1cc2nc([C@@H]3CCN3)[nH]c(=O)c2s1 [Example 77, 2-[(2S)-azetidin-2-yl]-6-(5-methyl-1H-pyrazol-4-yl)thieno[3,2-d]pyrimidin-4 (3H)-one] | 108 |
| Cc1[nH]ncc1-c1cc2nc(C3CCCCCN3)[nH]c(=O)c2s1 (stereo not shown) [Example 79, 2-(azepan-2-yl)-6-(5-methyl-1H-pyrazol-4-yl)thieno[3,2-d]pyrimidin-4 (3H)-one] | 93.3 |
| Cc1[nH]ncc1-c1cc2nc([C@@H]3CCCN3C)[nH]c(=O)c2s1 [Example 88, 6-(5-methyl-1H-pyrazol-4-yl)-2-[(2S)-1-methylpyrrolidin-2-yl]thieno[3,2-d]pyrimidin-4 (3H)-one dihydrochloride] | 101 |
| Cc1[nH]ncc1-c1cc2nc([C@@H]3C[C@H](C)CN3)[nH]c(=O)c2s1 [Example 92, 6-(5-methyl-1H-pyrazol-4-yl)-2-[(2S,4S)-4-methylpyrrolidin-2-yl]thieno[3,2-d]pyrimidin-4 (3H)-one dihydrochloride] | 108 |
| Cc1[nH]ncc1-c1cc2nc([C@H]3CCCCCN3)[nH]c(=O)c2s1 [Example 101, 2-[(2R)-azepan-2-yl]-6-(5-methyl-1H-pyrazol-4-yl)thieno[3,2-d]pyrimidin-4 (3H)-one] | 96.2 |
| Cc1[nH]ncc1-c1cc2nc([C@@H]3CCCCCN3)[nH]c(=O)c2s1 [Example 102, 2-[(2S)-azepan-2-yl]-6-(5-methyl-1H-pyrazol-4-yl)thieno[3,2-d]pyrimidin-4 (3H)-one] | 95.9 |

Same assay, conditions: read-out: inhibitory rate (%) at 1 μM, test compound 1 μM; Cdc7/Dbf4, 1.0 μm ATP, 10 μg/ml MCM2

| inhibition at 1 µM [%] | SMILES |
| --- | --- |
| 103 | Cc1[nH]ncc1-c1cc2nc([C@@H]3CCCN3)[nH]c(=O)c2s1 [Example 11, 6-(5-methyl-1H-pyrazol-4-yl)-2-[(2S)-pyrrolidin-2-yl]thieno[3,2-d]pyrimidin-4 (3H)-one monotrifluoroacetate] |
| 109 | Cc1[nH]ncc1-c1cc2nc(C3CCCCN3)[nH]c(=O)c2s1 (stereo not shown) [Example 71, 6-(5-methyl-1H-pyrazol-4-yl)-2-(piperidin-2-yl)thieno[3,2-d]pyrimidin-4 (3H)-one dihydrochloride] |
| 103 | Cc1[nH]ncc1-c1cc2nc([C@H]3CCCCN3)[nH]c(=O)c2s1 [Example 85, 6-(5-methyl-1H-pyrazol-4-yl)-2-[(2R)-piperidin-2-yl]thieno[3,2-d]pyrimidin-4 (3H)-one dihydrochloride] |

More lines, now with the values behind:

| SMILES | inhibition at 1 µM [%] |
| --- | --- |
| Cc1[nH]ncc1-c1cc2nc(C3(C)CCCN3)[nH]c(=O)c2s1 (stereo not shown) [Example 82, 6-(5-methyl-1H-pyrazol-4-yl)-2-(2-methylpyrrolidin-2-yl)thieno[3,2-d]pyrimidin-4 (3H)-one dihydrochloride] | 105 |
| Cc1[nH]ncc1-c1cc2nc([C@]3(C)CCCN3)[nH]c(=O)c2s1 [Example 103, 6-(5-methyl-1H-pyrazol-4-yl)-2-[(2S)-2-methylpyrrolidin-2-yl]thieno[3,2-d]pyrimidin-4 (3H)-one dihydrochloride] | 96.7 |

Same assay, conditions: test compound 1 μM; Cdc7/Dbf4, 1.0 μm ATP, 10 μg/ml MCM2; read-out: inhibitory rate (%) at 1 μM

| inhibition at 1 µM [%] | SMILES |
| --- | --- |
| 108 | Cc1[nH]ncc1-c1cc2nc([C@H]3CCCC[C@@H]3N)[nH]c(=O)c2s1 (relative stereo) [Example 129, 2-[(1R*,2R*)-2-aminocyclohexyl]-6-(5-methyl-1H-pyrazol-4-yl)thieno[3,2-d]pyrimidin-4 (3H)-one dihydrochloride] |
| 97 | Cc1[nH]ncc1-c1cc2nc(C3CCCC3N)[nH]c(=O)c2s1 (single isomer, unassigned) [Example 137, 2-(2-aminocyclopentyl)-6-(5-methyl-1H-pyrazol-4-yl)thieno[3,2-d]pyrimidin-4 (3H)-one dihydrochloride] |
| 98.4 | Cc1[nH]ncc1-c1cc2nc([C@@H]3C[C@@H](F)CN3)[nH]c(=O)c2s1 [Example 23, 2-[(2S,4R)-4-fluoropyrrolidin-2-yl]-6-(5-methyl-1H-pyrazol-4-yl)thieno[3,2-d]pyrimidin-4 (3H)-one dihydrochloride] |
| 102 | Cc1[nH]ncc1-c1cc2nc(C3COCCN3)[nH]c(=O)c2s1 (stereo not shown) [Example 72, 6-(5-methyl-1H-pyrazol-4-yl)-2-(morpholin-3-yl)thieno[3,2-d]pyrimidin-4 (3H)-one dihydrochloride] |
| 86.2 | Cc1[nH]ncc1-c1cc2nc([C@@H]3C[C@@H]4CCCC[C@@H]4N3)[nH]c(=O)c2s1 [Example 78, 6-(5-methyl-1H-pyrazol-4-yl)-2-[(2S,3aS,7aS)-octahydro-1H-indol-2-yl]thieno[3,2-d]pyrimidin-4 (3H)-one] |

The next lines start with the compound.

| SMILES | inhibition at 1 µM [%] |
| --- | --- |
| Cc1[nH]ncc1-c1cc2nc([C@H]3NC[C@H]4C[C@H]43)[nH]c(=O)c2s1 (relative stereo) [Example 87, 2-[(1R*,2S*,5S*)-3-azabicyclo[3.1.0]hex-2-yl]-6-(5-methyl-1H-pyrazol-4-yl)thieno[3,2-d]pyrimidin-4 (3H)-one dihydrochloride] | 107 |
| Cc1[nH]ncc1-c1cc2nc([C@H]3NC[C@@H]4C[C@@H]43)[nH]c(=O)c2s1 (relative stereo) [Example 110, 2-[(1S*,2S*,5R*)-3-azabicyclo[3.1.0]hex-2-yl]-6-(5-methyl-1H-pyrazol-4-yl)thieno[3,2-d]pyrimidin-4 (3H)-one dihydrochloride] | 100 |
| Cc1[nH]ncc1-c1cc2nc(-c3ccccc3Cl)[nH]c(=O)c2s1 [Example 1, 2-(2-chlorophenyl)-6-(5-methyl-1H-pyrazol-4-yl)thieno[3,2-d]pyrimidin-4 (3H)-one] | 97 |
| Cc1[nH]ncc1-c1cc2nc(CN3CC[C@H](F)C3)[nH]c(=O)c2s1 [Example 4, 2-{[(3S)-3-fluoropyrrolidin-1-yl]methyl}-6-(5-methyl-1H-pyrazol-4-yl)thieno[3,2-d]pyrimidin-4 (3H)-one] | 102 |
| Cc1[nH]ncc1-c1cc2nc(CN3CC=CCC3)[nH]c(=O)c2s1 [Example 75, 2-(3,6-dihydropyridin-1(2H)-ylmethyl)-6-(5-methyl-1H-pyrazol-4-yl)thieno[3,2-d]pyrimidin-4 (3H)-one] | 107 |
| Cc1[nH]ncc1-c1cc2nc([C@H]3NC4CCC3CC4)[nH]c(=O)c2s1 [Example 108, 2-[(3S)-2-azabicyclo[2.2.2]oct-3-yl]-6-(5-methyl-1H-pyrazol-4-yl)thieno[3,2-d]pyrimidin-4 (3H)-one dihydrochloride] | 103 |
| Cc1[nH]ncc1-c1cc2nc([C@@H]3NC[C@@H]4C[C@@H]43)[nH]c(=O)c2s1 [Example 112, 2-[(1S,2R,5R)-3-azabicyclo[3.1.0]hex-2-yl]-6-(5-methyl-1H-pyrazol-4-yl)thieno[3,2-d]pyrimidin-4 (3H)-one dihydrochloride] | 105 |
| Cc1[nH]ncc1-c1cc2nc([C@H]3NC[C@H]4C[C@H]43)[nH]c(=O)c2s1 [Example 113, 2-[(1R,2S,5S)-3-azabicyclo[3.1.0]hex-2-yl]-6-(5-methyl-1H-pyrazol-4-yl)thieno[3,2-d]pyrimidin-4 (3H)-one dihydrochloride] | 124 |
